Reference: patent US11433019B2, “Ganoderma lucidum extract-preparing method using eco-friendly extraction technique, Ganoderma lucidum extract prepared thereby, and anti-aging cosmetic composition comprising same extract” (AMOREPACIFIC CORPORATION, priority 2017, dated 2022)

Tests used:
[1] = test system: matrix metalloprotease-1 (MMP-1); test: MMP-1 inhibitory effect: free MMP-1 in media of UV-irradiated HS68 fibroblasts (kit, Amersham RPN2610); type: cell-based; conditions: 5 μM, UV 30 mJ, treated twice for 48 hours, corrected with control without test substance
Protocol: In order to confirm the inhibitory effect of Ganoderma lucidum extracts extracted with the aqueous cyclodextrin solution according to the present disclosure on matrix metalloprotease-1 (MMP-1) expression increased by ultraviolet rays, fibroblasts cells (HS68) were seeded at a concentration of 0.75*10^5 in each well of a 12 well plate and made to be a starvation state for 24 hours, then washed with phosphate buffered saline and irradiated with UV (30 mJ). Subsequently, as a positive control, 1, 10, and 50 ppm of Ganoderma lucidum extracts extracted with 5 μM of retinoic Acid (RA) and an aqueous cyclodextrin solution were treated twice for 48 hours, and the amount of free MMP-1 in the media was measured using a kit (Amersham, RPN2610).

collagenase = test: Collagenase production/expression in human fibroblasts (antibody-based absorbance at 405 nm); type: cell-based; conditions: 5 μM, 24 hours, untreated group = 100
Protocol: The inhibitory ability of Ganoderma lucidum extracts extracted with the aqueous cyclodextrin solution according to the present disclosure on collagenase production was measured in comparison with retinoic acid. Human fibroblasts were added at 5,000 cells/well in a 96-well microtiter plate containing Dulbecco's Modified Eagle's Media (DMEM) medium containing 2.5% fetal bovine serum and incubated in an incubator (5% CO2, 37° C.) until the growth reached 70 to 80%. Then, the Ganoderma lucidum extracts, which were extracted using the 1% β-CD aqueous cyclodextrin solution in combination with ultrasonic extraction, were treated with the cells at a concentration of 100 μg/ml for 24 hours, and then the cell culture solution was collected.
Then, the degree of collagenase production in the thus-collected cell culture solution was measured using a commercially available collagenase measuring instrument (GE Healthcare Life Sciences). […]
The absorbance of the yellowish 96-well plate was measured at 405 nm using an absorptiometer, and the expression level of collagenase was calculated by Calculation Equation 1 below. In particular, the reaction absorbance of the collected cell culture solution in the untreated group was taken as the absorbance of the control group. […]
A: Absorbance of the test substance-treated cell group
B: Absorbance of control group […]

CC1=C(/C=C/C(C)=C/C=C/C(C)=C/C(=O)O)C(C)(C)CCC1 [Retinoic acid, retinoic Acid]
Extracellular MMP-1 (% of control) [1]: 66.2% of control | Degree of Collagenase Expression (%) (collagenase): 75.0%
